Test results reported in the supplement of paper PMC10307832.

Columns and labels:
Experiment in all cases: relative viability (nuclei count vs DMSO), 5 days (fraction); higher = more cells survive
[1] = test system: NCI-H596
Summary of the method: (§1)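 Lung cancer cell lines were pin-tool dosed in 1536-well plates on the day after seeding, with either a lone drug or a fixed anchor-drug dose plus five library-drug doses (not always all listed) in √10 steps. Nuclei were counted on 4× images after 5 days. Relative viability is the ratio of treated-well to vehicle-well nuclei counts, with each value a median of duplicate plates.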

[2] = test system: NCI-H358
Summary of the method: as §1

[3] = test system: LC-2-ad
Summary of the method: as §1

[4] = test system: NCI-H650
Summary of the method: as §1

[5] = test system: LXF-289
Summary of the method: as §1

[6] = test system: NCI-H838
Summary of the method: as §1

[7] = test system: SK-MES-1
Summary of the method: as §1

[8] = test system: BEN
Summary of the method: as §1

[9] = test system: NCI-H1944
Summary of the method: as §1

[10] = test system: NCI-H2342
Summary of the method: as §1

[11] = test system: LK-2
Summary of the method: as §1

[12] = test system: NCI-H661
Summary of the method: as §1

[13] = test system: ChaGo-K-1
Summary of the method: as §1

[14] = test system: LU99A
Summary of the method: as §1

[15] = test system: NCI-H2087
Summary of the method: as §1

[16] = test system: NCI-H1666
Summary of the method: as §1

[17] = test system: NCI-H1355
Summary of the method: as §1

[18] = test system: NCI-H1975
Summary of the method: as §1

[19] = test system: LCLC-97TM1
Summary of the method: as §1

[20] = test system: NCI-H1651
Summary of the method: as §1

[21] = test system: PC-3 [JPC-3]
Summary of the method: as §1

Compound COc1cc2nccc(Oc3ccc(NC(=O)Nc4cc(C)on4)c(Cl)c3)c2cc1OC [Tivozanib] + CCNC(=O)c1noc(-c2cc(C(C)C)c(O)cc2O)c1-c1ccc(CN2CCOCC2)cc1 [Luminespib] (partner 0.01 µM) has a relative viability ([1]; first compound 0.005 µM) of 0.771, a relative viability ([1]; first compound 0.01581 µM) of 1.04 and a relative viability ([1]; first compound 0.05 µM) of 1.04. It also gave a relative viability ([1]; first compound 0.5 µM) of 0.858, a relative viability ([2]; first compound 0.005 µM) of 0.336 and a relative viability ([2]; first compound 0.01581 µM) of 0.568. It also gave a relative viability ([2]; first compound 0.05 µM) of 0.478, a relative viability ([2]; first compound 0.5 µM) of 0.339 and a relative viability ([3]; first compound 0.005 µM) of 1.03. It also gave a relative viability ([3]; first compound 0.01581 µM) of 1.19, a relative viability ([3]; first compound 0.05 µM) of 0.993 and a relative viability ([3]; first compound 0.1581 µM) of 0.945. The relative viability ([3]; first compound 0.5 µM) was 0.879, the relative viability ([4]; first compound 0.005 µM) was 0.807 and the relative viability ([4]; first compound 0.01581 µM) was 0.784. For the same compound, the relative viability ([4]; first compound 0.05 µM) was 0.795, the relative viability ([4]; first compound 0.1581 µM) was 0.692 and the relative viability ([4]; first compound 0.5 µM) was 0.708. The relative viability ([5]; first compound 0.005 µM) was 0.582, the relative viability ([5]; first compound 0.01581 µM) was 0.611 and the relative viability ([5]; first compound 0.05 µM) was 0.641. The relative viability ([5]; first compound 0.1581 µM) was 0.689, the relative viability ([5]; first compound 0.5 µM) was 0.773 and the relative viability ([6]; first compound 0.005 µM) was 0.196. It also gave a relative viability ([6]; first compound 0.01581 µM) of 0.265, a relative viability ([6]; first compound 0.05 µM) of 0.501 and a relative viability ([6]; first compound 0.5 µM) of 0.237. It also gave a relative viability ([7]; first compound 0.005 µM) of 0.737, a relative viability ([7]; first compound 0.01581 µM) of 0.832 and a relative viability ([7]; first compound 0.05 µM) of 0.773. For the same compound, the relative viability ([7]; first compound 0.1581 µM) was 0.837, the relative viability ([7]; first compound 0.5 µM) was 0.807 and the relative viability ([8]; first compound 0.005 µM) was 0.337. The relative viability ([8]; first compound 0.01581 µM) was 0.305, the relative viability ([8]; first compound 0.05 µM) was 0.508 and the relative viability ([8]; first compound 0.1581 µM) was 0.148. It also gave a relative viability ([8]; first compound 0.5 µM) of 0.299, a relative viability ([9]; first compound 0.005 µM) of 0.691 and a relative viability ([9]; first compound 0.01581 µM) of 0.83. It also gave a relative viability ([9]; first compound 0.05 µM) of 0.732, a relative viability ([9]; first compound 0.1581 µM) of 0.625 and a relative viability ([9]; first compound 0.5 µM) of 0.818. It also gave a relative viability ([10]; first compound 0.005 µM) of 0.673, a relative viability ([10]; first compound 0.01581 µM) of 0.656 and a relative viability ([10]; first compound 0.05 µM) of 0.802. The relative viability ([10]; first compound 0.5 µM) was 0.626, the relative viability ([11]; first compound 0.005 µM) was 0.179 and the relative viability ([11]; first compound 0.01581 µM) was 0.225. It also gave a relative viability ([11]; first compound 0.05 µM) of 0.184, a relative viability ([11]; first compound 0.1581 µM) of 0.233 and a relative viability ([11]; first compound 0.5 µM) of 0.206. It also gave a relative viability ([12]; first compound 0.005 µM) of 0.958, a relative viability ([12]; first compound 0.01581 µM) of 0.956 and a relative viability ([12]; first compound 0.05 µM) of 0.982. It also gave a relative viability ([12]; first compound 0.1581 µM) of 0.998, a relative viability ([12]; first compound 0.5 µM) of 0.953 and a relative viability ([13]; first compound 0.005 µM) of 0.622. The relative viability ([13]; first compound 0.01581 µM) was 0.565, the relative viability ([13]; first compound 0.05 µM) was 0.593 and the relative viability ([13]; first compound 0.1581 µM) was 0.497. For the same compound, the relative viability ([13]; first compound 0.5 µM) was 0.502, the relative viability ([14]; first compound 0.005 µM) was 0.206 and the relative viability ([14]; first compound 0.01581 µM) was 0.246. The relative viability ([14]; first compound 0.05 µM) was 0.218, the relative viability ([14]; first compound 0.1581 µM) was 0.203 and the relative viability ([14]; first compound 0.5 µM) was 0.274. It also gave a relative viability ([15]; first compound 0.005 µM) of 0.135, a relative viability ([15]; first compound 0.01581 µM) of 0.209 and a relative viability ([15]; first compound 0.05 µM) of 0.189. For the same compound, the relative viability ([15]; first compound 0.1581 µM) was 0.148, the relative viability ([15]; first compound 0.5 µM) was 0.147 and the relative viability ([16]; first compound 0.005 µM) was 0.89. For the same compound, the relative viability ([16]; first compound 0.01581 µM) was 0.998, the relative viability ([16]; first compound 0.05 µM) was 0.993 and the relative viability ([16]; first compound 0.1581 µM) was 1.01. It also gave a relative viability ([16]; first compound 0.5 µM) of 1, a relative viability ([17]; first compound 0.005 µM) of 0.612 and a relative viability ([17]; first compound 0.01581 µM) of 0.686. The relative viability ([17]; first compound 0.05 µM) was 0.747, the relative viability ([17]; first compound 0.1581 µM) was 0.462 and the relative viability ([17]; first compound 0.5 µM) was 0.728. For the same compound, the relative viability ([18]; first compound 0.005 µM) was 0.172, the relative viability ([18]; first compound 0.01581 µM) was 0.34 and the relative viability ([18]; first compound 0.05 µM) was 0.199. The relative viability ([18]; first compound 0.1581 µM) was 0.198, the relative viability ([18]; first compound 0.5 µM) was 0.316 and the relative viability ([19]; first compound 0.005 µM) was 0.845. The relative viability ([19]; first compound 0.01581 µM) was 0.849, the relative viability ([19]; first compound 0.05 µM) was 0.716 and the relative viability ([19]; first compound 0.1581 µM) was 0.898. The relative viability ([19]; first compound 0.5 µM) was 0.738, the relative viability ([20]; first compound 0.005 µM) was 0.86 and the relative viability ([20]; first compound 0.01581 µM) was 0.638. It also gave a relative viability ([20]; first compound 0.05 µM) of 0.842, a relative viability ([20]; first compound 0.1581 µM) of 0.883 and a relative viability ([20]; first compound 0.5 µM) of 0.931. It also gave a relative viability ([21]; first compound 0.005 µM) of 0.744, a relative viability ([21]; first compound 0.01581 µM) of 0.636 and a relative viability ([21]; first compound 0.05 µM) of 0.751. The relative viability ([21]; first compound 0.1581 µM) was 0.716 and the relative viability ([21]; first compound 0.5 µM) was 0.766.
